Measured values: PubChem BioAssay (NCI)
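Where inhibition never reached the appropriate level, the endpoint shown equals the highest concentration tested. Otherwise, values were interpolated linearly from a five-concentration, 48-hour dose response in 96-well plates. GI50 = concentration required for 50% inhibition of growth. TGI marks complete inhibition of growth.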

Columns and labels:
Experiment in all cases: growth of human tumour cells (NCI), 48 h
[1] = test system: SK-MEL-28 melanoma
[2] = test system: HOP-62 NSCLC
[3] = test system: SK-OV-3 ovarian
[4] = test system: SK-MEL-2 melanoma
[5] = test system: OVCAR-5 ovarian
[6] = test system: PC-3 prostate
[7] = test system: HOP-92 NSCLC
[8] = test system: LOX IMVI melanoma
[9] = test system: RXF 393 renal
[10] = test system: MCF7 breast
[11] = test system: SN12C renal
[12] = test system: CAKI-1 renal
[13] = test system: 786-0 renal
[14] = test system: EKVX NSCLC
[15] = test system: OVCAR-8 ovarian
[16] = test system: MDA-MB-435
[17] = test system: MALME-3M melanoma
[18] = test system: OVCAR-4 ovarian
[19] = test system: IGROV1 ovarian
[20] = test system: BT-549 breast
[21] = test system: SF-295 CNS
[22] = test system: SNB-19 CNS
[23] = test system: CCRF-CEM leukemia
[24] = test system: MDA-MB-231 breast
[25] = test system: SF-268 CNS
[26] = test system: HCC-2998 colon
[27] = test system: HT29 colon
[28] = test system: SW-620 colon
[29] = test system: HCT-116 colon
[30] = test system: SK-MEL-5 melanoma
[31] = test system: HS 578T breast
[32] = test system: KM12 colon
[33] = test system: NCI-H460 lung
[34] = test system: K-562 leukemia
[35] = test system: OVCAR-3 ovarian
[36] = test system: NCI-H522 lung
[37] = test system: MOLT-4 leukemia
[38] = test system: HL-60(TB) leukemia
[39] = test system: COLO 205 colon
[40] = test system: A498 renal
[41] = test system: U251 CNS
[42] = test system: UACC-62 melanoma
[43] = test system: RPMI-8226 leukemia
[44] = test system: SF-539 CNS
[45] = test system: A549 NSCLC
[46] = test system: NCI-H226 lung
[47] = test system: M14 melanoma
[48] = test system: NCI/ADR-RES ovarian
[49] = test system: DU-145 prostate
[50] = test system: T-47D breast
[51] = test system: TK-10 renal
[52] = test system: NCI-H23 lung
[53] = test system: ACHN renal
[54] = test system: UACC-257 melanoma
[55] = test system: MDA-MB-468 breast
[56] = test system: UO-31 renal
[57] = test system: HCT-15 colon
[58] = test system: SR leukemia
[59] = test system: SNB-75 CNS

Work on `CCN1CCN(c2ccc(NC(=O)Nc3ccc4c(c3F)CCN4c3ccnc(C(=O)NC)c3)cc2C(F)(F)F)CC1` yielded a GI50 [1] of 5.65 µM, a TGI [1] of 10.8 µM and a GI50 [2] of 5.34 µM. It also gave a TGI [2] of 10.9 µM, a GI50 [3] of 5.84 µM and a TGI [3] of 11.6 µM. For the same molecule, the GI50 [4] was greater than 37300 nM, the TGI [4] was greater than 37.3 µM and the GI50 [5] was 5.82 µM. It also gave a TGI [5] of 10.8 µM, a GI50 [6] of 7.39 µM and a TGI [6] of 18.9 µM. For the same molecule, the GI50 [7] was 5.87 µM, the TGI [7] was 12.5 µM and the GI50 [8] was 5.54 µM. For the same molecule, the TGI [8] was 10.7 µM, the GI50 [9] was 1350 nM and the TGI [9] was 6.03 µM. It also gave a GI50 [10] of 5.93 µM, a TGI [10] of 13.1 µM and a GI50 [11] of 5.88 µM. The TGI [11] was 11.2 µM, the GI50 [12] was 6.56 µM and the TGI [12] was 12 µM. The GI50 [13] was 5.77 µM, the TGI [13] was 13.7 µM and the GI50 [14] was 6.71 µM. It also gave a TGI [14] of 12.6 µM, a GI50 [15] of 7.08 µM and a TGI [15] of 15.6 µM. The GI50 [16] was 5.09 µM, the TGI [16] was 10.4 µM and the GI50 [17] was 5.49 µM. It also gave a TGI [17] of 10.5 µM, a GI50 [18] of 6.3 µM and a TGI [18] of 13.7 µM. For the same molecule, the GI50 [19] was 6.66 µM, the TGI [19] was 12.2 µM and the GI50 [20] was 6.92 µM. The TGI [20] was 13.4 µM, the GI50 [21] was 3.52 µM and the TGI [21] was 8.23 µM. For the same molecule, the GI50 [22] was 5.95 µM, the TGI [22] was 11.2 µM and the GI50 [23] was 6.25 µM. For the same molecule, the TGI [23] was 24.4 µM, the GI50 [24] was 6.26 µM and the TGI [24] was 11.5 µM. The GI50 [25] was 6.13 µM, the TGI [25] was 14 µM and the GI50 [26] was 6.44 µM. The TGI [26] was 12 µM, the GI50 [27] was 3.06 µM and the TGI [27] was 9.53 µM. For the same molecule, the GI50 [28] was 5.07 µM, the TGI [28] was 11.1 µM and the GI50 [29] was 6.98 µM. It also gave a TGI [29] of 16.5 µM, a GI50 [30] of 6.1 µM and a TGI [30] of 11.3 µM. It also gave a GI50 [31] of 4.9 µM, a TGI [31] of 13.2 µM and a GI50 [32] of 341 nM. The TGI [32] was 6.62 µM, the GI50 [33] was 6.04 µM and the TGI [33] was 12.3 µM. For the same molecule, the GI50 [34] was 7.43 µM, the TGI [34] was greater than 37.3 µM and the GI50 [35] was 6.02 µM. For the same molecule, the TGI [35] was 11.6 µM, the GI50 [36] was 7.1 µM and the TGI [36] was 13.8 µM. It also gave a GI50 [37] of 2090 nM, a TGI [37] of 16.3 µM and a GI50 [38] of 6.65 µM. It also gave a TGI [38] of 15.7 µM, a GI50 [39] of 10.7 µM and a TGI [39] greater than 37.3 µM. The GI50 [40] was 5.77 µM, the TGI [40] was 10.9 µM and the GI50 [41] was 4.8 µM. For the same molecule, the TGI [41] was 9.97 µM, the GI50 [42] was 6.18 µM and the TGI [42] was 11.3 µM. For the same molecule, the GI50 [43] was 7.73 µM, the TGI [43] was 30.9 µM and the GI50 [44] was 2350 nM. It also gave a TGI [44] of 7.24 µM, a GI50 [45] of 6.75 µM and a TGI [45] of 13.5 µM. It also gave a GI50 [46] of 6.58 µM, a TGI [46] of 14.7 µM and a GI50 [47] of 6.8 µM. The TGI [47] was 14.5 µM, the GI50 [48] was 6.87 µM and the TGI [48] was 16 µM. The GI50 [49] was 6.45 µM, the TGI [49] was 11.9 µM and the GI50 [50] was greater than 37.3 µM. The TGI [50] was greater than 37.3 µM, the GI50 [51] was 7.52 µM and the TGI [51] was 13.1 µM. It also gave a GI50 [52] of 5.97 µM, a TGI [52] of 12 µM and a GI50 [53] of 5.9 µM. It also gave a TGI [53] of 10.9 µM, a GI50 [54] of 6.27 µM and a TGI [54] of 12 µM. It also gave a GI50 [55] of 6.36 µM, a TGI [55] of 12.7 µM and a GI50 [56] of 5.43 µM. For the same molecule, the TGI [56] was 10.3 µM, the GI50 [57] was 5.54 µM and the TGI [57] was 12.1 µM. The GI50 [58] was 5.44 µM, the TGI [58] was 18.7 µM and the GI50 [59] was 585 nM. For the same molecule, the TGI [59] was 6.84 µM.
With `O=C1Nc2cc(Cl)ccc2/C1=C/c1cccc(OCc2ccc(Br)cc2F)c1` the GI50 [1] was 4.47 µM, the TGI [1] was 24.1 µM and the GI50 [2] was 4.02 µM. The TGI [2] was 34.2 µM, the GI50 [3] was 14.6 µM and the TGI [3] was greater than 100 µM. It also gave a GI50 [4] of 2160 nM, a TGI [4] of 5.35 µM and a GI50 [5] of 8.48 µM. It also gave a TGI [5] greater than 100 µM, a GI50 [6] of 3.89 µM and a TGI [6] greater than 100 µM. The GI50 [7] was 2.33 µM, the TGI [7] was 12.4 µM and the GI50 [8] was 2.49 µM. The TGI [8] was 8.24 µM, the GI50 [9] was 4470 nM and the TGI [9] was 50.4 µM. It also gave a GI50 [10] of 0.642 µM, a TGI [10] of 27.8 µM and a GI50 [11] of 4.11 µM. For the same molecule, the TGI [11] was greater than 100 µM, the GI50 [12] was 2.54 µM and the TGI [12] was 13.9 µM. For the same molecule, the GI50 [13] was 3.79 µM, the TGI [13] was greater than 100 µM and the GI50 [14] was 3.23 µM. It also gave a TGI [14] greater than 100 µM, a GI50 [15] of 4.32 µM and a TGI [15] greater than 100 µM. For the same molecule, the GI50 [16] was 1.82 µM, the TGI [16] was 3.41 µM and the GI50 [17] was 4.15 µM. It also gave a TGI [17] of 20.9 µM, a GI50 [18] of 3.55 µM and a TGI [18] of 47.2 µM. The GI50 [19] was 2.71 µM, the TGI [19] was 97.7 µM and the GI50 [21] was 3.16 µM. The TGI [21] was 14.9 µM, the GI50 [22] was 3.9 µM and the TGI [22] was greater than 100 µM. The GI50 [23] was 2.91 µM, the TGI [23] was 10.9 µM and the GI50 [24] was 2.63 µM. It also gave a TGI [24] of 12.5 µM, a GI50 [25] of 3.33 µM and a TGI [25] greater than 100 µM. For the same molecule, the GI50 [26] was 3.71 µM, the TGI [26] was greater than 100 µM and the GI50 [28] was 2.89 µM. The TGI [28] was greater than 100 µM, the GI50 [29] was 3.1 µM and the TGI [29] was greater than 100 µM. For the same molecule, the GI50 [30] was 3.03 µM, the TGI [30] was 10.9 µM and the GI50 [31] was 2.17 µM. The TGI [31] was 5.82 µM, the GI50 [32] was 3650 nM and the TGI [32] was 41 µM. It also gave a GI50 [34] of 2.67 µM, a TGI [34] of 8.56 µM and a GI50 [35] of 2.53 µM. For the same molecule, the TGI [35] was 7.82 µM, the GI50 [37] was 2920 nM and the TGI [37] was 9.41 µM. It also gave a GI50 [38] of 1.85 µM, a TGI [38] of 4.53 µM and a GI50 [39] of 3.42 µM. The TGI [39] was greater than 100 µM, the GI50 [40] was 7.92 µM and the TGI [40] was 57.2 µM. The GI50 [41] was 3.79 µM, the TGI [41] was greater than 100 µM and the GI50 [42] was 2.49 µM. The TGI [42] was 8.8 µM, the GI50 [43] was 2.35 µM and the TGI [43] was 12.6 µM. It also gave a GI50 [44] of 1990 nM, a TGI [44] of 4.34 µM and a GI50 [45] of 4.66 µM. The TGI [45] was greater than 100 µM, the GI50 [46] was 3.09 µM and the TGI [46] was greater than 100 µM. For the same molecule, the GI50 [47] was 2.17 µM, the TGI [47] was 5.71 µM and the GI50 [49] was 5.97 µM. It also gave a TGI [49] greater than 100 µM, a GI50 [50] of 3.67 µM and a TGI [50] greater than 100 µM. For the same molecule, the GI50 [51] was 14.3 µM, the TGI [51] was greater than 100 µM and the GI50 [52] was 3.88 µM. The TGI [52] was greater than 100 µM, the GI50 [53] was 3.94 µM and the TGI [53] was greater than 100 µM. It also gave a GI50 [54] of 8.5 µM, a TGI [54] greater than 100 µM and a GI50 [55] of 2.43 µM. For the same molecule, the TGI [55] was 8.88 µM, the GI50 [56] was 2.05 µM and the TGI [56] was greater than 100 µM. The GI50 [57] was 2.67 µM, the TGI [57] was 12.3 µM and the GI50 [58] was 2.15 µM. The TGI [58] was 5.07 µM, the GI50 [59] was 1830 nM and the TGI [59] was 5.11 µM.
